Series [1] is described as follows: Stability test, open clean container at 60° C. The series is classed as physicochemical. As for the experimental part:
The crystal A obtained in Method 1 of Example 2 and the crystal B obtained in Example 3 were placed in an open clean container at 60° C., and sampled for detection on days 5 and 10, respectively.

The conditions of series [2]: rats, 30 mg/kg PO; FDA pharmacology review; cited from earlier work.
The conditions of series [3]: dogs, Male, FDA pharmacology review, cited from earlier work.

This is an account of results in patent publication US10626118B2, “Pyrrolopyrimidine crystal for preparing JAK inhibitor” (Chia Tai Tianqing Pharmaceutical Group Co., Ltd., priority 2016, dated 2020).

Structures are written as SMILES. Where two headings read alike, the source gives them in different places.

For `N#CC[C@H](C1CCCC1)n1cc(-c2ncnc3[nH]ccc23)c(N)n1` [Crystal A of compound represented by formula I] [(3R)-3-[3-amino-4-(7H-pyrrolo[2,3-d]pyrimidin-4-yl)-1H-pyrazol-1-yl]-3-cyclopentyl-propionitrile], the “Content (%)” value in series [1] (Day 0) is 99.72%; in series [1] (Day 5) it was 99.71%; in series [1] (Day 10), 99.73%. Besides, the “Total Impurity (%)” value in series [1] (Day 0) is given as 0.28%; in series [1] (Day 5) it was 0.29%; in series [1] (Day 10), 0.27%.

Turning to `N#CC[C@H](C1CCCC1)n1cc(-c2ncnc3[nH]ccc23)c(N)n1` [Crystal B of compound represented by formula I] [(3R)-3-[3-amino-4-(7H-pyrrolo[2,3-d]pyrimidin-4-yl)-1H-pyrazol-1-yl]-3-cyclopentyl-propionitrile], the “Content (%)” value in series [1] (Day 0) came to 99.23%; in series [1] (Day 5), 99.23%; in series [1] (Day 10) it was 99.22%. For the same compound, the “Total Impurity (%)” value in series [1] (Day 0) was determined as 0.77%; in series [1] (Day 5), 0.77%; in series [1] (Day 10), 0.78%.

With `N#CC[C@H](C1CCCC1)n1cc(-c2ncnc3[nH]ccc23)cn1` [Ruxolitinib], in series [2], the AUCINFobs is 1345 ng·h/mL. Moreover, the AUCINF_obs was 13776 ng·h/mL in series [3] (IV 5 mg/kg) and 15716 ng·h/mL in series [3] (PO 10 mg/kg).
